For the first series the following is noted: human, hek293, 0.1 µM.
Consider `O=C(CCCN1CCC2(CC1)C(=O)NCN2c1ccccc1)c1ccc(F)cc1` [SPIPERONE], for which the Fu was 0.66.

Take `Fc1ccc([C@@H]2CCNC[C@H]2COc2ccc3c(c2)OCO3)cc1` [PAROXETINE]: the Fu is listed as 0.25.

With `CCN(CC)CCNC(=O)c1cc(Cl)c(N)cc1OC` [METOCLOPRAMIDE], the Fu stood at 0.95.

For the molecule `CC(C)(C)NCC(O)COc1ccc(NC(=O)NC2CCCCC2)cc1` (stereo unspecified) [TALINOLOL], the Fu came to 0.85.

The molecule `O=C(CCCN1CCC(O)(c2ccc(Cl)cc2)CC1)c1ccc(F)cc1` [HALOPERIDOL] registered a Fu of 0.52.

`C[C@@H]1CN(c2c(F)c(N)c3c(=O)c(C(=O)O)cn(C4CC4)c3c2F)C[C@H](C)N1` [SPARFLOXACIN] displayed a Fu of 0.88.

`C=CCc1ccccc1OCC(O)CNC(C)C` (stereo unspecified) [ALPRENOLOL]: the Fu came to 0.9.

For `COc1ccc2c(c1)[C@]13CCCC[C@@H]1[C@H](C2)N(C)CC3` [DEXTROMETHORPHAN], the Fu is 0.82.

`CN(C)C(=O)C(CCN1CCC(O)(c2ccc(Cl)cc2)CC1)(c1ccccc1)c1ccccc1` [LOPERAMIDE] came in with a Fu of 0.35.

`O=C1c2c(O)ccc(O)c2C(=O)c2c(NCCNCCO)ccc(NCCNCCO)c21` [MITOXANTRONE] came in with a Fu of 0.13.

As for `CC(CN(C)C)CN1c2ccccc2CCc2ccccc21` (stereo unspecified) [TRIMIPRAMINE], the Fu is on record as 0.4.

`CN(C)CCCC1(c2ccc(F)cc2)OCc2cc(C#N)ccc21` (stereo unspecified) [CITALOPRAM] had a Fu of 0.81.

Molecule `CC(C)(C)NC(=O)[C@@H]1C[C@@H]2CCCC[C@@H]2CN1C[C@@H](O)[C@H](Cc1ccccc1)NC(=O)[C@H](CC(N)=O)NC(=O)c1ccc2ccccc2n1` gave a Fu of 0.17.

Take `COC(=O)C1=C(C)NC(C)=C(C(=O)OCCN(C)Cc2ccccc2)C1c1cccc([N+](=O)[O-])c1` (stereo unspecified) [NICARDIPINE]: the Fu was found to be 0.095.

`CC(=O)N1CCN(c2ccc(OCC3COC(Cn4ccnc4)(c4ccc(Cl)cc4Cl)O3)cc2)CC1` (stereo unspecified) [KETOCONAZOLE] displayed a Fu of 0.39.

`CC[C@H](C)C(=O)O[C@H]1C[C@@H](C)C=C2C=C[C@H](C)[C@H](CC[C@@H]3C[C@@H](O)CC(=O)O3)[C@H]21` [LOVASTATIN]: the Fu is 0.22.

As for `CN(C)CCCN1c2ccccc2CCc2ccc(Cl)cc21` [CLOMIPRAMINE], the Fu was 0.19.

Turning to `CNC(=C[N+](=O)[O-])NCCSCc1ccc(CN(C)C)o1` [RANITIDINE], the Fu was found to be 1.

`O=C(O)c1cc(/N=N/c2ccc(S(=O)(=O)Nc3ccccn3)cc2)ccc1O` [SULFASALAZINE]: the Fu came to 0.72.

`CC(C)NCC(O)COc1cccc2ccccc12` (stereo unspecified) [PROPRANOLOL]: the Fu is given as 0.7.

`Cc1nccn1CC1CCc2c(c3ccccc3n2C)C1=O` (stereo unspecified) [ONDANSETRON] had a Fu of 0.94.

For the molecule `CN/C(=N/CCSCc1nc[nH]c1C)NC#N` [CIMETIDINE], the Fu is reported as 1.

For `CO[C@H]1/C=C/O[C@@]2(C)Oc3c(C)c(O)c4c(O)c(c(/C=N/N5CCN(C)CC5)c(O)c4c3C2=O)NC(=O)/C(C)=C\C=C\[C@H](C)[C@H](O)[C@@H](C)[C@@H](O)[C@@H](C)[C@H](OC(C)=O)[C@@H]1C` [RIFAMPIN], the Fu is recorded as 0.62.

`NC(=O)N1c2ccccc2C=Cc2ccccc21` [CARBAMAZEPINE]: the Fu was 0.97.

`CCCc1nc2c(C)cc(-c3nc4ccccc4n3C)cc2n1Cc1ccc(-c2ccccc2C(=O)O)cc1`: the Fu is reported as 0.42.

`COCc1c(C(C)C)nc(C(C)C)c(/C=C/[C@@H](O)C[C@@H](O)CC(=O)O)c1-c1ccc(F)cc1` [CERIVASTATIN]: the Fu stood at 0.55.

In the case of `CC(C)CN(C[C@@H](O)[C@H](Cc1ccccc1)NC(=O)O[C@H]1CCOC1)S(=O)(=O)c1ccc(N)cc1`, the Fu was 0.92.

Regarding `CCCCN1CCCCC1C(=O)Nc1c(C)cccc1C` (stereo unspecified) [BUPIVACAINE], the Fu is recorded as 0.89.

The molecule `COCCc1ccc(OCC(O)CNC(C)C)cc1` (stereo unspecified) [METOPROLOL] returned a Fu of 1.

In turn, `O=C(O)Cc1ccccc1Nc1c(Cl)cccc1Cl` [DICLOFENAC] gave a Fu of 0.78.

`CC(=O)[C@H]1CC[C@H]2[C@@H]3CCC4=CC(=O)CC[C@]4(C)[C@H]3CC[C@]12C` [PROGESTERONE] gave a Fu of 0.67.

Regarding `Cc1ncc2n1-c1ccc(Cl)cc1C(c1ccccc1F)=NC2` [MIDAZOLAM], the Fu was found to be 0.66.

`CCCNC(=O)NS(=O)(=O)c1ccc(Cl)cc1` [CHLORPROPAMIDE] came in with a Fu of 1.

The molecule `COc1ccc2c(c1)c(CC(=O)O)c(C)n2C(=O)c1ccc(Cl)cc1` [INDOMETHACIN] displayed a Fu of 0.79.

As for `CSc1ccc2c(c1)N(CCC1CCCCN1C)c1ccccc1S2` (stereo unspecified) [THIORIDAZINE], the Fu amounted to 0.049.

A short description of the next series: Unbound fraction in HEK293 cell homogenate at 0.01 uM by equilibrium dialysis based UPLC-MS/MS analysis. Format: ADME. The conditions noted are these: human, hek293, 0.01 µM. (In equilibrium dialysis only unbound substance equilibrates across the membrane.)
In the case of `Cc1c(O)cccc1C(=O)N[C@@H](CSc1ccccc1)[C@H](O)CN1C[C@H]2CCCC[C@H]2C[C@H]1C(=O)NC(C)(C)C`, the Fu was found to be 0.024.

The record behind these values is ChEMBL document CHEMBL3232907, “A high-throughput cell-based method to predict the unbound drug fraction in the brain” (J Med Chem, 2014).
